Experimental data taken from patent publication US20110218515A1, “Methods for Treating Acute Myocardial Infarctions and Associated Disorders” (The Regents of the University of California, priority 2009, published 2011).
Entries after “also recorded” stand apart in the source; their conditions may differ.

Columns and labels:
[1] = system: congestive heart failure dogs, coronary perfused left ventricular preparation; assay: Ventricular fibrillation optical mapping, activation patterns, pacing-induced heart failure dogs; format: in vivo
From the text: (§1) Animal Models: Twenty-four dogs weighing 25-30 Kg were divided into three groups: control (n=11), congestive heart failure (n=7), and congestive heart failure with the antifibrotic drug pirfenidone (n=6). Heart Failure (CHF) was induced in 7 dogs via four weeks of rapid ventricular pacing via a lead placed in the RV and pulse generator set to pace at 240 bpm followed by ablation of the AV node to create complete heart block, as described in Li, et al., Circulation 1999; 100:87-95. Ventricular function was monitored weekly with transthoracic echocardiography for 4 weeks. At 4 weeks, the optical mapping study was performed.
(§2) Heart Failure with Pirfenidone (PFD): Heart failure was induced in 6 dogs as described above and PFD was administered as described in Lee et al., Circulation 2006; 114; 1703-12. Oral PFD (800 mg 3 times per day; InterMune, Brisbane, Calif.) was started 2 days before the initiation of pacing and was discontinued >6 half-lives (24 hours) before the optical mapping study.
Optical Mapping Studies: A coronary perfused left ventricular preparation was used as described in Wu et al., J Cardiovasc Electrophysiol 1998; 9:1336-47. Briefly, following sedation with sodium pentothal (0.25 mg/Kg), a left lateral thoracotomy is performed and the heart was rapidly excised. It was then perfused with cardioplegic solution ((in mmol/L): NaCl 123, KCl 15, NaHCO3 22, NaH2PO4 0.65, MgCl2 0.50, glucose 5.5, CaCl2 2, bubbled with 95% O2/5% CO2) retrogradely through the aorta. The ventricles were removed at approximately 1 cm below the AV ring and the left anterior descending coronary artery (LAD) was perfused. The right ventricle was removed and the left ventricle was cut to the size that was perfused by the LAD and included a papillary muscle. All ventricular branches were then ligated.
The ventricular preparation was then transferred to a tissue chamber maintained at 37° C. The perfusion line in the LAD was perfused with modified Tyrode's solution ((in mmol/L): NaCl 123, KCl 5.4, NaHCO3 22, NaH2PO4 0.65, MgCl2 0.50, glucose 5.5, CaCl2 2, bubbled with 95% O2/5% CO2). Prior to optical recordings, a bolus of 30-40 μl of the voltage sensitive dye PGH-1 was injected directly into the perfusate.
With an optical mapping system described in Wu et al., J Cardiovasc Electrophysiol 1998; 9:1336-47, optical recordings were then made from 4-cm^2 area on 3 surfaces of the preparation (epicardial, endocardial (including the papillary muscle, and transmural) by a 16×16 photodiode array (C4657 Hamamatsu, Bridgewater, N.J.) that recorded 256 simultaneous optical action potentials. During optical recordings from a preparation, contractility was blocked with 15 mM 2,3-butadione monoxime (BDM; Sigma-Aldrich)11. Plunge electrodes were placed on the recording surface around the field of view for both pacing and monitoring. Two plunge electrodes were dedicated for recording a bipolar signal for monitoring the electrical activity of the preparation. VF was initiated with either extra stimuli or with rapid burst pacing at a cycle length of 50 ms, a pulse width of 9.9 ms, and an output of 9.9 mA. Several 4-s episodes of VF were recorded on each surface in each preparation. Activation movies of the VF were then viewed, and the activation patterns were determined. […] Activation patterns and wave-front direction during VF were determined from raw fluorescence movies (isopotential). […]

[2] = system: congestive heart failure dogs, coronary perfused left ventricular preparation; assay: VF frequency domain analysis (dominant frequency), pacing-induced heart failure dogs; format: in vivo; conditions: CHF dogs with PFD
From the text: as §1, §2
With an optical mapping system described in Wu et al., J Cardiovasc Electrophysiol 1998; 9:1336-47, optical recordings were then made from 4-cm^2 area on 3 surfaces of the preparation (epicardial, endocardial (including the papillary muscle, and transmural) by a 16×16 photodiode array (C4657 Hamamatsu, Bridgewater, N.J.) that recorded 256 simultaneous optical action potentials. During optical recordings from a preparation, contractility was blocked with 15 mM 2,3-butadione monoxime (BDM; Sigma-Aldrich)11. Plunge electrodes were placed on the recording surface around the field of view for both pacing and monitoring. Two plunge electrodes were dedicated for recording a bipolar signal for monitoring the electrical activity of the preparation. VF was initiated with either extra stimuli or with rapid burst pacing at a cycle length of 50 ms, a pulse width of 9.9 ms, and an output of 9.9 mA. Several 4-s episodes of VF were recorded on each surface in each preparation. Activation movies of the VF were then viewed, and the activation patterns were determined. After termination of VF, signals were obtained during pacing at 250 ms and isochronal maps of activation were constructed to look at conduction. Activation patterns and wave-front direction during VF were determined from raw fluorescence movies (isopotential). […] VF was defined as rapid and irregular activations on the bipolar signal used for monitoring the electrical activity of the preparation.
Signal Processing and Frequency Domain Analysis: The signals obtained from the optical mapping recordings were sampled at 2,000 Hz, and for each signal the dominant frequency (DF) was determined and the organization was calculated as described Everett, et al., IEEE Trans Biomed Eng 2001; 48:969-78. Briefly, a fast Fourier transform (FFT) was calculated on the digitally filtered waveform. The data were detrended and multiplied by a Hamming window. The largest peak of the resulting magnitude spectrum was identified, and the positions of the harmonic peaks were determined on the basis of its position. The areas under the largest peak and three of its harmonic peaks were each calculated over a 1-Hz window. This produced an area under four peaks. The total area of the spectrum was calculated from 2 Hz up to but not including the fifth harmonic peak. The ratio of the power under the harmonic peaks to the total power in this range was calculated, and the resulting number was defined as the organization index (OI). The OI was theorized to represent the organization of AF for that signal at that period in time. To calculate the variance of the DFs, spatial coefficient of variance (SD/mean) of the DFs during a single episode of AF among all recording sites and temporal coefficient of variance of average DFs from among AF episodes for each mapping field within each preparation were calculated. Discrete, stable, high frequency areas were noted. […]

[3] = system: TNF-α, TGF-β1, bFGF, PDGF, and EGF; conditions: literature report; cited from earlier work
[4] = CHF dogs, oral PFD 800 mg 3 times per day, one line per dog, listed as PFD

Cc1ccc(=O)n(-c2ccccc2)c1 [pirfenidone]
mapped epicardial surfaces having either focal activation or a spiral wave ([1]; CHF dogs with PFD): 2/6 | mapped transmural surfaces with spiral wave activation pattern correlated to stable high DF areas ([1]; CHF dogs with PFD): 50% | VF Activation Patterns, Endocardial [1, 4]: either multiple or broad wavefront activation; also recorded: multiple wave; also recorded: broad wavefront | VF Activation Patterns, Epicardial [1, 4]: multiple wave; also recorded: focal | VF Activation Patterns, Transmural [1, 4]: spiral wave; also recorded: multiple wave | dogs with at least one surface with VF characterized by high DF areas ([2]; CHF 6 of 7, Controls 3 of 11): 3 of 6 | gradient of frequencies over distance, transmural surface ([2]; untreated heart failure animals have a very large gradient): preserved the transmural gradient to that similar to control animals | DF Spatial CoV ([2]; Endocardium): 0.11 ± 0.04 | DF Temporal CoV ([2]; Endocardium): 0.07 ± 0.03 | Max DF ([2]; Endocardium): 10.44 ± 1.32 Hz | Mean DF ([2]; Endocardium): 8.29 ± 0.68 Hz | DF Spatial CoV ([2]; Epicardium): 0.09 ± 0.04 | DF Temporal CoV ([2]; Epicardium): 0.05 ± 0.01 | Max DF ([2]; Epicardium): 10.92 ± 0.98 Hz | Mean DF ([2]; Epicardium): 9.17 ± 1.08 Hz | DF Spatial CoV ([2]; Transmural): 0.14 ± 0.06 | DF Temporal CoV ([2]; Transmural): 0.08 ± 0.02 | Max DF ([2]; Transmural): 10.24 ± 1.89 Hz | Mean DF ([2]; Transmural): 7.93 ± 1.52 Hz | biosynthesis or release of various cytokines such as TNF-α, TGF-β1, bFGF, PDGF, and EGF [3]: inhibit excessive biosynthesis or release | collagen expression [3]: decrease collagen expression
